In one test the test system is Mia PACA-2. The test can be described thus: Pancreatic cancer growth assay in nude mouse model. It counts as in vivo. How it is done: To determine the effect of a polyphenolic compound on pancreatic cancer cell growth, the following assay using a nude mouse model was conducted. Specifically, the effect of quercetin was tested in a nude mouse model of pancreatic cancer using the highly malignant pancreatic cancer cell line, Mia PACA-2.
Tumor induction in nude mice was performed as described by Hotz HC, et al. (2001) Pancreas 22:113-121, which is herein incorporated by reference. For subcutaneous tumor formation, 1×10^7 Mia PACA-2 tumor cells were subcutaneously injected in the medio-dorsal region of a nude mouse. After 4 weeks a small tumor fragment, about 1 mm in diameter, was removed from the subcutaneous tumor and transplanted into the pancreatic tail of mice of two study groups. Ten days after tumor transplantation, treatment with or without quercetin was initiated. The treated animals received daily intraperitoneal injections of 1.3 mg quercetin dissolved in DMSO; the control group received DMSO only by intraperitoneal injection. The animals were sacrificed once clinical tumor signs including severe cachexia ascites with abdominal distension or heavy tumor burden, larger than 1.5 cm, became apparent. Tumor volume was calculated as described by Hotz H C, et al. (2001) as 0.5×length×width×depth. Metastatic tumor spread was determined macroscopically at autopsy in all thoracic, abdominal, retroperitoneal and pelvic organs. All macroscopic suspicious lesions were further confirmed as tumor dissemination by microscopic analysis. Each value in the metastatic score represented a different organ of metastatic tumor spread.

The next test concerns cytochrome c. Kind of test: Mitochondrial cytochrome c release (Western blot). It counts as cell-based, human. Conditions: Mia PACA-2, 24 hours, 100 μM, no serum. How it is done: In order to determine the effects polyphenolic compounds have on mitochondrial cytochrome c release and apoptosis, the following assay was conducted. BSp73AS cells were cultured for 6 hours and Mia PACA-2 cells were cultured in the absence of serum or growth factors for 24 hours in the absence or presence of 100 μM of each rutin, trans-resveratrol, genistein, or quercetin. Cells were washed twice with ice-cold PBS, pH 7.2 and resuspended in extraction buffer, about 500 μl, comprising 20 mM HEPES-KOH (pH 7.0), 10 mM KCl, 1 mM NaEGTA, 2 mM MgCl2, 1 mM EDTA, 1 mM DTT, 250 mM sucrose, 1 mM PMSF and protease inhibitors cocktail as provided above. The lysate was incubated for 30 minutes on ice and then homogenized using a glass dounce (80 strokes). Nuclei were removed by centrifugation at 1,000 g for 10 minutes at 4° C. Supernatant was additionally centrifuged for 1 hour at 100,000 g and the resulting supernatant (cytosolic fraction) and pellet (mitochondrial fraction) were collected separately, subjected to SDS-PAGE, and Western blotting using an antibody against cytochrome c. The experiment was repeated twice with similar results.
In order to determine the role of the cancer cell's PTP in the effects of the polyphenolic compounds on mitochondrial function, caspase-3 activation and apoptosis, we performed the following experiments. Mia PACA-2 cells were cultured in the absence of serum or growth factors for 24 hours in the presence or absence of quercetin (100 μM), trans-resveratrol (100 μM), Z-VAD FMK (50 μM), cyclosporin A (5 μM) and/or aristolochic acid (50 μM). Cells were collected, washed with ice-cold PBS and resuspended in lysis buffer comprising 0.5% Nonidet P-40 or manufactured by the name IGEPAL CA-630, 0.5 mM EDTA, 150 mM NaCl and 50 mM Tris at pH 7.5. Cell lysates were placed for 30 minutes on a rotator at 4° C. and then centrifuged for 15 minutes at 15,000 g. Cytosolic protein extracts (supernatants) were collected, protein concentrations were determined and the extracts were aliquoted and stored at −80° C. Cytosolic extracts were subjected to SDS-PAGE and Western blot was performed with an antibody against cytochrome c. Blots were then stripped and re-probed with an antibody against tubulin to confirm equal protein loading. The experiment was repeated twice with similar results.
In order to determine the effect of a combination of trans-resveratrol and quercetin on cytochrome c release and caspase-3 activity, the following was conducted. Mia PACA-2 cells were cultured in the absence of serum or growth factors for 24 hours in the presence or absence of trans-resveratrol (25 μM), quercetin (25 μM), or the combination of trans-resveratrol (25 μM) and quercetin (25 μM). Cytosolic extracts were prepared and subject to SDS-PAGE followed by protein transfer. Immunoblot was performed with an antibody against tubulin to confirm equal protein loading.

Another test relates to BSp73AS cells. Kind of test: Oligonucleosomal DNA fragmentation (agarose gel). Type of test: cell-based, rat. The following applies: 6 hours, 100 μM, no serum. How it is done:
To confirm the apoptosis in vivo results, the effects of quercetin, rutin, and trans-resveratrol in other apoptosis assays in Mia PACA-2 cells and BSp73AS cells in culture were conducted. BSp73AS cells are derived from a rat pancreatic carcinoma and both Mia PACA-2 and BSp73AS cells have mutated p53 and express K-ras. Human pancreatic carcinoma cell line Mia PACA-2 and rat pancreatic carcinoma BSp73AS were cultured in Dulbecco's Modified Eagle's Medium supplemented with 10% heat inactivated FBS, penicillin G (100 U/ml) and streptomycin ([…]) in a humidified atmosphere comprising 5% (v/v) CO2. When cells were 90% confluent they were detached, washed with alternating centrifugation and resuspension, plated and incubated in the same media without FBS and with the indicated concentrations of polyphenolic compounds or vehicle for up to 96 hours. Oligonucleotide DNA fragmentation, annexin staining, and PARP proteolysis assays were conducted as follows: BSp73AS pancreatic cancer cells were cultured for 6 hours in the presence or absence of 100 μM of rutin, quercetin, or trans-resveratrol. DNA was isolated as described by Gukovskaya AS, et al. (1997) Clin Invest 100: 1853-1862, which is herein incorporated by reference. […]

For another test, the system named is caspase-3. Kind of test: Caspase-3 (DEVDase) activity, fluorogenic assay with DEVD-AMC. Type of test: cell-based, human. The following applies: Mia PACA-2, up to 24 hours, 100 μM, no serum (FIG. 7B).
Where [1] appears, read: nude mice with Mia PACA-2 tumor in pancreatic tail, daily i.p. 1.3 mg quercetin, means ± SE, n=8.

Marks after values point to notes of the source that are not given here.

The results in this text go back to patent publication US6953786B2, “Compositions comprising plant-derived polyphenolic compounds and inhibitors of reactive oxygen species and methods of using thereof” (The Regents of the University of California, priority 2002, dated 2005).

Experimental for caspase-3: To determine whether a polyphenolic compound activates caspase-3 activity in a time-dependent manner, the following assay was conducted. BSp73AS cells were cultured for 0, 1, 3, and 6 hours and Mia PACA-2 cells were cultured in the absence of serum or growth factors for 0, 1, 4, 6, and 24 hours in the presence of 100 μM or quercetin, trans-resveratrol, rutin, or control. Caspase-3 activity was measured in cell lysates with a fluorogenic assay using DEVD-AMC as a substrate. The results were normalized to the DEVDase activity in untreated cells.
To determine the role of caspases in the effects of combinations of agents on apoptosis, the effects of caspase-3 activity (DEVDase activity) as well as the effect of the broad spectrum caspase inhibitor, Z-VAD, on apoptosis was measured. Specifically, Mia PACA-2 cells were cultured for 72 hours in the presence of serum with or without 100 μM Z-VAD, 15 μM DPI, 100 μM trans-resveratrol, 100 μM genistein, a combination of trans-resveratrol and DPI, and a combination of genistein and DPI. DEVDase activity was measured in whole cell lysates with a fluorimetric assay.
A fluorimetric assay for caspase-3 activity was conducted. […] Cytosolic protein extracts (supernatants) were collected, protein concentrations were determined and the extracts were aliquoted and stored at −80° C. […] The reaction was started by addition of caspase-3 substrate, the readings were taken at 0, 60, 90, and 120 minutes. Fluorescence was calibrated using a standard curve for AMC. The data were expressed as mol AMC/mg protein/min.
Mia PACA-2 cells were cultured in the absence of serum or growth factors for 24 hours in the presence or absence of quercetin (100 μM), trans-resveratrol (100 μM), Z-VAD FMK (50 μM), cyclosporin A (5 μM) and/or aristolochic acid (50 μM). […] The reaction was started by addition of caspase-3 substrate, the readings were taken at 0, 60, 90, and 120 minutes. Fluorescence was calibrated using a standard curve for AMC. […] The data were expressed as mol AMC/mg protein/min. […]

Take `O=c1c(-c2ccc(O)cc2)coc2cc(O)cc(O)c12` [genistein]: in the test on Mia PACA-2, the “growth of pancreatic cancer in a nude mouse model” value was “inhibition of growth”. Moreover, the “cytosolic and mitochondrial cytochrome c” value with cytochrome c was “caused increases in cytosolic cytochrome c and decreases in mitochondrial cytochrome c”.
As for `O=c1c(O)c(-c2ccc(O)c(O)c2)oc2cc(O)cc(O)c12` [quercetin], in the test with Mia PACA-2 (setting [1]), the “Number of metastatic sites (organs with metastatic lesions)” value came out at 0.6 and the “Tumor volume, cm^3” value is given as 1.56 ± 0.27* cm^3. Also, the “Number of metastatic sites (organs with metastatic lesions)” value in the test with Mia PACA-2 (nude mice with Mia PACA-2 tumor in pancreatic tail, daily i.p. 1.3 mg quercetin, means ± SE, n=8, listed as Quercetin) worked out at 0.62 ± 0.26. In the test on Mia PACA-2 (nude mice with Mia PACA-2 tumor transplanted into pancreatic tail, daily intraperitoneal 1.3 mg quercetin in DMSO, means ± SE, n=8, days after transplantation until animal appeared ill from abdominal distension), the “Survival” value was 75.00 ± 2.50 days. In the test on Mia PACA-2, the “growth of pancreatic cancer in a nude mouse model” value is on record as “inhibition of growth”. Further, the “oligonucleosomal DNA fragmentation” value with BSp73AS cells is listed as “caused an increase”. For the same compound, the caspase-3 activation result in the test on caspase-3 is given as “caused caspase-3 activation”. Besides, the “cytosolic and mitochondrial cytochrome c” value in the test on cytochrome c is “caused increases in cytosolic cytochrome c and decreases in mitochondrial cytochrome c”.
With `Oc1ccc(/C=C/c2cc(O)cc(O)c2)cc1` [trans-resveratrol], the “oligonucleosomal DNA fragmentation” value in the test with BSp73AS cells is on record as “caused an increase”. For the same compound, in the test on caspase-3, the caspase-3 activation entry is “caused caspase-3 activation”. Moreover, in the test with cytochrome c, the “cytosolic and mitochondrial cytochrome c” value is “caused increases in cytosolic cytochrome c and decreases in mitochondrial cytochrome c”.
